Data as given in PMC10014601, “The cyclic peptide G4CP2 enables the modulation of galactose metabolism in yeast by interfering with GAL4 transcriptional activity” (Frontiers in Molecular Biosciences, 2023).
Read-outs that look alike come from different tables or passages of the source. Where a SMILES comes first, the peptide text is derived from it. [ ]: non-standard residue; d: D form. βAla = NCCC(=O)O

Experiments:
in vitro = conditions: for Papp / Papp at 18 h: pH 7.4
Method: A 96-well acceptor microplate (PTFE, Millipore) was prepared by filled each well with 300 μL of PBS/DMSO (95:5, pH = 7.4), while the donor microplate artificial membrane (PVDF membrane, pore size […], Millipore) was carefully coated with 5 μL of PBL dissolved in dodecane ([…]). Each compound was dissolved in DMSO, diluted with PBS/DMSO (95:5, pH = 7.4) to a final concentration of 40–100 μM in the donor well, filtered with a Millex filter, and applied to the donor microplate wells (200 μL). Next, the donor plate was carefully placed on top of the acceptor plate, thereby bringing the artificial membrane in contact with the buffer solution underneath. The donor well was covered with a lid, and the whole system was left undisturbed overnight (18 h) at 25°C in a container sealed with damp paper towels to prevent evaporation. After incubation, the donor microplate was carefully removed, and UV-vis spectroscopy was used to determine the amounts of the tested compounds in the acceptor and donor microplate wells, respectively. Each sample was evaluated at five wavelengths in four wells during three separate runs; accordingly, all data are presented as mean values with relevant standard deviation. The permeability values (Pe,exp, cm/s) were calculated according to the following expression: Pe,exp = {−VdVa/[(Vd + Va)At]ln–1—da/deq}, in which Vd and Va represent the volumes of the donor and the acceptor wells, respectively, A is the surface of the artificial membrane, t is the permeation time, whilst da and deq are the absorbance measured in the acceptor well and the theoretical equilibrium absorbance value, respectively. After the PAMPA-BBB test for all compounds was completed, the integrity of the lipid membrane was evaluated based on the transport of Lucifer Yellow (Sigma-Aldrich)—a fluorescent molecule with very limited membrane permeability rejected by a uniform and integral lipid membrane performed according to the Millipore protocol lit. n. PC1545EN00 (https://www.sigmaaldrich.com/technical-documents/protocols/biology/membrane-integrity-test-for-lipid-pampa-artificial-membranes.html).

[1] = PAMPA-BBB literature value, cited from earlier work
Excerpt: Supplement Table3.XLSX, sheet "Primer list" | column: Pe,lit

GAL4 = molecular target: T1, GAL4 (Saccharomyces cerevisiae, UniProt P04386); test: pGAL1::YFP reporter fluorescence (YFP/OD600), BY4741 treated with chemically synthesized peptides (feeding); type: cell-based; conditions: 100 µM peptide; 1.00 and 10.00 Gal/Glu ratios; 15.5 h
T1 construct: endogenous in cells; host or cells: S. cerevisiae BY4741 (S288C derivative) with integrated GAL1p-YFP cassette
Method: The fluorescence signal of BY4741 pGAL1::YFP reporter strain was measured using a Varioskan LUX multimode microplate reader (ThermoFisher Scientific). Overnight cultures were pelleted, washed twice in water and OD600 normalized for the different cultures. An equal volume of normalized cultures was pipetted in each well of a 96-well plate containing different galactose/glucose (Gal/Glu) ratios. When treating the cells with chemically synthesized G4CP2, a 10 mM stock solution (100% DMSO) was diluted to a working concentration of 100 µM in each well designated for treatment. Fluorescence and OD600 measurements were performed by incubating plates at 28°C, shaking 2 min at 180 rpm, before each measurement.
To test the effects of exogenous administration of chemically synthetized G4CP2 on pGAL1::YFP biosensor, a random-selected control peptide (CP11) was used. […] G4CP2 and CP11 were used at 100 µM to treat BY4741 pGAL1::YFP yeast cells grown in 96-well plates under 1.00 and 10.00 Gal/Glu ratios. YFP/OD600 values were again recorded for 15.5 h (Figure 4D).

[2] = marked b, ref Kerns et al., 2004
[3] = marked a (or a,b; then also Kerns et al., 2004), ref Di et al., 2003

## CN1C(=O)CN=C(c2ccccc2)c2cc(Cl)ccc21 [Diazepam]
In vitro; pig, PAMPA
  Papp: 13.7 ± 0.8 ×10⁻⁶ cm/s

## CN(C)CCCN1c2ccccc2Sc2ccc(Cl)cc21 [Chlorpromazine]
In vitro; pig, PAMPA
  Papp at 18 h: 6.8 ± 0.3 ×10⁻⁶ cm/s

## OCCN(CCO)c1nc(N2CCCCC2)c2nc(N(CCO)CCO)nc(N3CCCCC3)c2n1 [Dipyridamole]
In vitro; pig, PAMPA
  Papp at 18 h: 3.8 ± 0.4 ×10⁻⁶ cm/s
[1]; [2]
  Pe,lit: 3.5b 10-6 cm/s

## CCn1cc(C(=O)O)c(=O)c2cc(F)c(N3CCNCC3)nc21 [Enoxacin]
In vitro; pig, PAMPA
  Papp at 18 h: 0.98 ± 0.3 ×10⁻⁶ cm/s

## Cc1nnc2n1-c1ccc(Cl)cc1C(c1ccccc1)=NC2 [Alprazolam]
In vitro; pig, PAMPA
  Papp: 5.1 ± 0.4 ×10⁻⁶ cm/s
[1]; [3]
  Pe,lit: 5.4a 10-6 cm/s

## C/C=C/C[C@@H](C)[C@@H](O)[C@H]1C(=O)N[C@@H](C(C)C)C(=O)N(C)CC(=O)N(C)[C@@H](CC(C)C)C(=O)N[C@@H](C(C)C)C(=O)N(C)[C@@H](CC(C)C)C(=O)N[C@@H](C)C(=O)N[C@H](C)C(=O)N(C)[C@@H](CC(C)C)C(=O)N(C)[C@@H](CC(C)C)C(=O)N(C)[C@@H](C(C)C)C(=O)N1C [CSD]
In vitro; PAMPA
  Papp: 0.93 ± 0.5 ×10⁻⁶ cm/s

## CCN(CC)CCCC(C)Nc1ccnc2cc(Cl)ccc12 (stereo not shown) [Chloroquine]
In vitro; pig, PAMPA
  Papp at 18 h: 2.4 ± 0.1 ×10⁻⁶ cm/s

## CSCC[C@@H]1NC(=O)[C@H](CC(=O)O)NC(=O)[C@H](Cc2ccccc2)NC(=O)[C@H](Cc2ccccc2)NC(=O)[C@H](Cc2ccc(O)cc2)NC(=O)[C@H](CCCNC(=N)N)NC(=O)CCNC(=O)[C@H](Cc2ccc(O)cc2)NC(=O)[C@H](Cc2c[nH]c3ccccc23)NC1=O [G4CP2] (cyclo(DMWY[βAla]RYFF))
In vitro; PAMPA
  passive permeability classification: moderate-to-good
  Papp: 3.3 ± 0.4 ×10⁻⁶ cm/s
GAL4
  YFP fluorescence signal over time (YFP/OD600): strongly attenuated

## CC(C)NCC(O)COc1ccc(CC(N)=O)cc1 (stereo not shown) [Atenolol]
In vitro; pig, PAMPA
  Papp at 18 h: 0.74 ± 0.04 ×10⁻⁶ cm/s

## COc1cc(Cc2cnc(N)nc2N)cc(OC)c1OC [Trimethoprim]
In vitro; pig, PAMPA
  Papp at 18 h: 2.5 ± 0.2 ×10⁻⁶ cm/s
[1]; [2]
  Pe,lit: 2.2b 10-6 cm/s

## CC(C)[C@H]1C(=O)O[C@H](C(C)C)C(=O)N(C)[C@@H](C(C)C)C(=O)O[C@H](C(C)C)C(=O)N(C)[C@@H](C(C)C)C(=O)O[C@H](C(C)C)C(=O)N1C [EnB]
In vitro; PAMPA
  Papp at 18 h: 8.3 ± 0.7 ×10⁻⁶ cm/s

## CN1C(C(=O)Nc2ccccn2)=C(O)c2ccccc2S1(=O)=O [Piroxicam]
[1]; [3]
  Pe,lit: 2.5a 10-6 cm/s

## CC(=O)[C@H]1CC[C@H]2[C@@H]3CCC4=CC(=O)CC[C@]4(C)[C@H]3CC[C@]12C [Progesterone]
In vitro; pig, PAMPA
  Papp at 18 h: 10.9 ± 0.7 ×10⁻⁶ cm/s

## CCn1cc(C(=O)O)c(=O)c2cc(F)c(N3CCNCC3)cc21 [Norfloxacin]
In vitro; pig, PAMPA
  Papp at 18 h: 0.15 ± 0.01 ×10⁻⁶ cm/s

## CCn1cc(C(=O)O)c(=O)c2cc(F)c(N3CCNC(C)C3)c(F)c21 (stereo not shown) [Lomefloxacin]
In vitro; pig, PAMPA
  Papp at 18 h: 1.4 ± 0.1 ×10⁻⁶ cm/s

## O=C1Nc2ccc(Cl)cc2C(c2ccccc2)=NC1O (stereo not shown) [Oxazepam]
[1]; [3]
  Pe,lit: 10a 10-6 cm/s

## Cn1c(=O)c2c(ncn2C)n(C)c1=O [Caffeine]
In vitro; PAMPA-BBB validation, porcine brain lipid in dodecane (20 mg/L), PBS/DMSO 95:5 pH 7.4, 40–100 μM donor, 18 h, 25°C, UV-vis, mean ± SD, four wells, three runs
  Pe,exp: 1.7 ± 0.2 10-6 cm/s
